Experimental data taken from ChEMBL document CHEMBL1201862, “PubChem BioAssay data set” (2004).
Active and inactive are the calls of the source.

Experiments:
[1] = molecular target: SWI/SNF-related matrix-associated actin-dependent regulator of chromatin subfamily A member 2 (Homo sapiens, UniProt P51531); experiment: Luminescence-based cell-based high throughput dose response assay to identify activators of the function of SWI/SNF related, matrix associated, actin dependent regulator of chromatin, subfamily a, member 2 (SMARCA2, BRM).; type: functional
Sequence of SWI/SNF-related matrix-associated actin-dependent regulator of chromatin subfamily A member 2 (P51531 whole entry, the tested form may be a part): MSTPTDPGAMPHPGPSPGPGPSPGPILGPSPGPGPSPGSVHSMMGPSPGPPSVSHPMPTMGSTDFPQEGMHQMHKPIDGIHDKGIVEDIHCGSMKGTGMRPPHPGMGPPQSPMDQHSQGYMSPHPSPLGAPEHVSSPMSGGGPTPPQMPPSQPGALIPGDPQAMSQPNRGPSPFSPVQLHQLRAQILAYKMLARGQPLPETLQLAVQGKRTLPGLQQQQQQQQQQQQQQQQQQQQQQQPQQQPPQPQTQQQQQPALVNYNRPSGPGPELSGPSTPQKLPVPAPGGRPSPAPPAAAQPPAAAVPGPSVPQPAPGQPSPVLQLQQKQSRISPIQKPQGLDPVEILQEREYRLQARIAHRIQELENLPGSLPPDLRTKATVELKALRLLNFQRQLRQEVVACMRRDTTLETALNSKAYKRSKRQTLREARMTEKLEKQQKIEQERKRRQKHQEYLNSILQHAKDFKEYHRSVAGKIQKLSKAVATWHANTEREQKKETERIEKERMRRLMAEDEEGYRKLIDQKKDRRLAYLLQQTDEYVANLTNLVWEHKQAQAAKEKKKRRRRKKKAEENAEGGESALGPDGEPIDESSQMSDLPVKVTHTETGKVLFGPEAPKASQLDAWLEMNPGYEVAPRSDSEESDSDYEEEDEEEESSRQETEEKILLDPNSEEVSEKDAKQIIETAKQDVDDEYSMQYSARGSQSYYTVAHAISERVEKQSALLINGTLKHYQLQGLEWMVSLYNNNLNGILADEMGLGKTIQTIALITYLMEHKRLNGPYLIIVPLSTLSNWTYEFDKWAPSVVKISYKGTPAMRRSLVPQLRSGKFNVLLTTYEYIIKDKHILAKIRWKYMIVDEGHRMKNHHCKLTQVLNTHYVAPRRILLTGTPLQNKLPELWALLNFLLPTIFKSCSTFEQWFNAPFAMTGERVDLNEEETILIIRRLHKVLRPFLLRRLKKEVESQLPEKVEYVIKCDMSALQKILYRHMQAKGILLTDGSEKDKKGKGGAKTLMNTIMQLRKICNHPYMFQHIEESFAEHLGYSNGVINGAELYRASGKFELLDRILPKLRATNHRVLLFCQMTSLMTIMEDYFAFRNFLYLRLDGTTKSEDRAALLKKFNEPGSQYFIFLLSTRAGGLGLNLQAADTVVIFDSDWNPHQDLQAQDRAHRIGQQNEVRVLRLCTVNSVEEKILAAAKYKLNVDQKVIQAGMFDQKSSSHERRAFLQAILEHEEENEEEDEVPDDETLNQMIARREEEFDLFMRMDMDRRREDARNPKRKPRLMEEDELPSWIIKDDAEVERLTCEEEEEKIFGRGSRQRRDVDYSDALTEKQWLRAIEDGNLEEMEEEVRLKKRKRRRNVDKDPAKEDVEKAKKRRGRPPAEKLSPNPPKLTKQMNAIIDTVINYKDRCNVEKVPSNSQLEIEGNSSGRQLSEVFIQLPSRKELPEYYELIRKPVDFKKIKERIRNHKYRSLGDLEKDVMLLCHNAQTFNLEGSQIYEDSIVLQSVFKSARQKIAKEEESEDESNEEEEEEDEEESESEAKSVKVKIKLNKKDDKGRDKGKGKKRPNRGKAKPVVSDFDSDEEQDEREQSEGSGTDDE

[2] = Fluorescence-based cell-based high throughput dose response assay for inhibitors of the interaction of nucleotide-binding oligomerization domain containing 2 (NOD2) and the receptor-interacting serine-threonine kinase 2 (RIPK2).; type: functional; details: Homo sapiens
[3] = molecular target: T1, Hexokinase (Trypanosoma brucei, UniProt Q38C41); experiment: Confirmation assay for inhibitors of Trypanosoma brucei hexokinase 1-Analogue-first series. [Related pubchem assays (depositor defined):AID1430, AID1632, AID2516, AID2560, AID2579, AID2600, AID449725, AID492951]; type: functional
T1 sequence (Q38C41 whole entry): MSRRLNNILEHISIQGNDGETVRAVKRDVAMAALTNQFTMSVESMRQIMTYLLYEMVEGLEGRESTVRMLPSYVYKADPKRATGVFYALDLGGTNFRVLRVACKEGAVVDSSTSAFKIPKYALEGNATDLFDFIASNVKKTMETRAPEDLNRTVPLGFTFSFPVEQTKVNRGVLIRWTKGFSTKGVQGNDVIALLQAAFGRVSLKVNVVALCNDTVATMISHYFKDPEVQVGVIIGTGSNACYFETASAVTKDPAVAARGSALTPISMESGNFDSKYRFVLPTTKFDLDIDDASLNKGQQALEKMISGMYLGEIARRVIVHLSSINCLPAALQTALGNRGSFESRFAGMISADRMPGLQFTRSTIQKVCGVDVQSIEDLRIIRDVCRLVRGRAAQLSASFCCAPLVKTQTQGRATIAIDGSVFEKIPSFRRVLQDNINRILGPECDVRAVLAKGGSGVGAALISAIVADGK

[4] = molecular target: T2, Rac GTPase-activating protein 1 (Homo sapiens, UniProt Q9H0H5); experiment: MgcRacGAP GTPase-activating activity inhibitors, confirmation, biochemical, ADP Hunter fluorescence, primary and confirmatory (AID 624330); type: functional
T2 sequence (Q9H0H5 whole entry): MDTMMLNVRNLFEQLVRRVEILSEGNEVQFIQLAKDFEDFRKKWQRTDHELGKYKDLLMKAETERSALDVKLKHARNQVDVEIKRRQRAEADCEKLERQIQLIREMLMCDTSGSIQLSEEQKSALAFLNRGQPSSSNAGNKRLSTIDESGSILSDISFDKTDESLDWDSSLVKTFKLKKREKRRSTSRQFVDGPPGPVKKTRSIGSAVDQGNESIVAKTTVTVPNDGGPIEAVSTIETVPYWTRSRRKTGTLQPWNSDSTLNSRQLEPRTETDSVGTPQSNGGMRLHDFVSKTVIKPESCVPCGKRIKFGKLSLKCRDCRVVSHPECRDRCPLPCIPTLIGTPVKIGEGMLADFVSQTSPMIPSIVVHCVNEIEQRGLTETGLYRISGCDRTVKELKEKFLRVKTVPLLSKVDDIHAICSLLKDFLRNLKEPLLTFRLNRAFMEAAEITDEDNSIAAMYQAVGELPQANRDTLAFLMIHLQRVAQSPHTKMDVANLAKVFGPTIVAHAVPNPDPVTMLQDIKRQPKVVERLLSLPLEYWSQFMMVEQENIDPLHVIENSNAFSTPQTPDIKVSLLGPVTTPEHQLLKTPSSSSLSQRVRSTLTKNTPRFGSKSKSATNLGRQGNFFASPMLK

[5] = Counterscreen for activators of the function of SWI/SNF related, matrix associated, actin dependent regulator of chromatin, subfamily a, member 2 (SMARCA2, BRM): Luminescence-based cell-based high throughput dose response assay to identify non-selective compounds using the VP16 reporter assay.; type: functional
[6] = molecular target: Beta Lactamase (Pseudomonas aeruginosa, UniProt Q932Y6); experiment: beta-lactamase reporter inhibitor potency, dose response, artefact control for NOD2-RIPK2 interaction inhibitor project, BLA reporter cells, FRET fluorescence (AID 651552); type: functional, cell-based
Sequence of Beta Lactamase (Q932Y6 whole entry): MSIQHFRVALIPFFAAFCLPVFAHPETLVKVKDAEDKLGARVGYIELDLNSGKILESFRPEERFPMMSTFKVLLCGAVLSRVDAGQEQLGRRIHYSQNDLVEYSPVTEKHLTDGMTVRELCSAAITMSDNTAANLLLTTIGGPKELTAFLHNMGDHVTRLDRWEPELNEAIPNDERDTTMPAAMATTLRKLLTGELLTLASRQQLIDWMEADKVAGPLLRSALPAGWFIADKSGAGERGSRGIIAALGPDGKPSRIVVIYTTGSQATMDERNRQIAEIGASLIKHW

[7] = molecular target: Glucose-6-phosphate 1-dehydrogenase (Homo sapiens, UniProt P11413); experiment: human G6PD enzyme inhibitors, dose response, selectivity assay for P. falciparum G6PD inhibitor project, biochemical, fluorescence (AID 504792); type: functional
Sequence of Glucose-6-phosphate 1-dehydrogenase (P11413 whole entry, the tested form may be a part): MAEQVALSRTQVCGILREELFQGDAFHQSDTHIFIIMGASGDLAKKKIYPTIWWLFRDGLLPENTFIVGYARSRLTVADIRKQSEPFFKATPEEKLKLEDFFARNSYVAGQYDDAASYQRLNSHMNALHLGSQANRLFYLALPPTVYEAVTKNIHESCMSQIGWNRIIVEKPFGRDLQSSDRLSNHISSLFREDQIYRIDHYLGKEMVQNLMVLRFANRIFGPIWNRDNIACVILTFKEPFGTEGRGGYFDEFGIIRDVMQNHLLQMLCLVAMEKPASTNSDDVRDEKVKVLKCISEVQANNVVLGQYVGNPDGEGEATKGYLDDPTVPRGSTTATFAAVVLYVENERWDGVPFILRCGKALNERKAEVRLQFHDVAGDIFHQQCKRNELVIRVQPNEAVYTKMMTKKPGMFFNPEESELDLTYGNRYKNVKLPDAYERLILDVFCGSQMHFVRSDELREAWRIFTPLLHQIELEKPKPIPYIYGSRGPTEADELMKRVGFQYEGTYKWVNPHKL

[8] = inhibitors of clade B AD8 Env fusion, dose response, cell-based, cherry-pick (AID 652062); type: functional;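 note: luciferase signal from cell-cell fusion driven by HIV-1 clade B AD8 Env; potency is for inhibitors of fusion seen as a drop in luminescence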
[9] = CEM21 lymphoblast cell cytotoxicity, dose response, cytotoxicity control for viral fusion inhibitor project, CellTiter-Glo luminescence, cherry-picked (AID 652042); type: functional, cell-based;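 note: potency for signal decrease meaning cytotoxicity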
[10] = inhibitors of HIV Env-driven cell fusion, dose response, cherry-pick (AID 652057); type: functional, cell-based
[11] = molecular target: Paired box protein Pax-8 (Homo sapiens, UniProt Q06710); experiment: inhibitors of PAX8-driven TPO luciferase reporter, dose response, RMG-I cells, cherry-pick (AID 687027); type: functional, cell-based;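 note: luciferase reporter driven by Pax8 target thyroperoxidase promoter measured by SteadyGlo luminescence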
Sequence of Paired box protein Pax-8 (Q06710 whole entry): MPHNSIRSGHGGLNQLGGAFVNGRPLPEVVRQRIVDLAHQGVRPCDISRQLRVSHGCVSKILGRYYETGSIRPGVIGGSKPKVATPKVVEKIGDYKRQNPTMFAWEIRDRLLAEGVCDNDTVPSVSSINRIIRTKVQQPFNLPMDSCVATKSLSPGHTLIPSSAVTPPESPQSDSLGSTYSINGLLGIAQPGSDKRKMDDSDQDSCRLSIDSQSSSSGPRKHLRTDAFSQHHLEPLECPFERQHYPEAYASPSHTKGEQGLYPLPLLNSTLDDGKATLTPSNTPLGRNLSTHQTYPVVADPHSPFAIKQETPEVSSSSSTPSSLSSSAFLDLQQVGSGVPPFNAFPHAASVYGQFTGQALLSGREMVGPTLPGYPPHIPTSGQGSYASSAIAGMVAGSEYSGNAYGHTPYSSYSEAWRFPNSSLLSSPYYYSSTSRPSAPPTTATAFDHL

[12] = cytotoxicity in OVCAR8 ovarian cancer cells, dose response, PAX8 project, cell-based, plate reader, dry powder samples (AID 743197); type: functional; details: OVCAR-8
[13] = non-specific cell cytotoxicity, dose response, cytotoxicity control for PAX8 inhibitor project, plate reader, dry powder samples (AID 743021); type: functional, cell-based
[14] = molecular target: T3, Trace amine-associated receptor 1 (Homo sapiens, UniProt Q96RJ0); experiment: Counterscreen for agonists of the human trace amine associated receptor 1 (hTAAR1): Fluorescence-based cell-based high throughput dose response assay to identify hTAAR1 agonist that also desensitize TAAR1 receptor response.; type: functional
T3 sequence (Q96RJ0 whole entry): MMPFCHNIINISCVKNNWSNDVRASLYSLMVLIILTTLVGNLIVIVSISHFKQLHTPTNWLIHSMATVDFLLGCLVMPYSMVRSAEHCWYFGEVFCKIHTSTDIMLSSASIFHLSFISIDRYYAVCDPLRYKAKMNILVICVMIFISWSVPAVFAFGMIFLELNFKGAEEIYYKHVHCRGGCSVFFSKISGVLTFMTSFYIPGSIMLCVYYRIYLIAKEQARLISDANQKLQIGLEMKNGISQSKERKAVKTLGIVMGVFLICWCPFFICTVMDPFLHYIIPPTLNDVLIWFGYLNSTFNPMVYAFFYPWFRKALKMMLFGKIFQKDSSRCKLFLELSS

[15] = cells; type: functional, cell-based
[16] = cells; type: functional, cell-based; remark: listed apart in the source
[17] = inhibitors of intracellular T. cruzi replication, confirmation, NIH3T3 host cells, beta-gal luminescence (AID 2044); type: functional, cell-based;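 note: intracellular parasites grown in NIH/3T3 mouse fibroblasts as host cells; luminescent beta-galactosidase reporter signal from transgenic T. cruzi replicating inside host cells; inhibitors lower the luminescence signal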
[18] = cytotoxicity toward NIH3T3 fibroblasts, dose response, counter-screen, cell-based, ATP luminescence, mouse fibroblasts (AID 2010); type: functional;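 note: cells exposed to compound for about 90 hours before reading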
[19] = molecular target: T3, Trace amine-associated receptor 1; experiment: Fluorescence-based cell-based high throughput dose response assay to identify agonists of the human trace amine associated receptor 1 (TAAR1).; type: functional
[20] = HepG2 cell cytotoxicity, dose response, cytotoxicity control, ATP luminescence, cherry-pick, activator set 2 (AID 1053143); type: functional, cell-based
[21] = molecular target: Dual specificity tyrosine-phosphorylation-regulated kinase 1A (Rattus norvegicus, UniProt Q63470); type: biochemical, Homo sapiens

O=C(Cn1sc2ccccc2c1=O)Nc1ccc(F)cc1
EC50 [1]: > 91.1 µM (inactive) | IC50 [2]: 9.51 µM (active) | IC50 [3]: 6.23 µM (active) | IC50 [4]: 56.2 µM (active) | EC50 [5]: > 91.1 µM (inactive) | IC50 [6]: 19.3 µM (inactive) | IC50 [7]: 14.9 µM (active)

COc1cccc(S(=O)(=O)N2CC3(CN(C(=O)Nc4cccc(F)c4)[C@@H](CO)c4[nH]c5cc(OC)ccc5c43)C2)c1
AC50 [8]: 27.1 µM (active) | AC50 [9]: 26.1 µM (active) | AC50 [10]: 0.986 µM (active)

COc1cccc(S(=O)(=O)N(C)C[C@@H]2OCc3ccccc3-c3c(n(C)c4ccccc34)C(=O)N([C@@H](C)CO)C[C@@H]2C)c1
AC50 [8]: 19.2 µM (active) | AC50 [11]: 5.8 µM (active) | AC50 [9]: 34.8 µM (active) | AC50 [12]: > 70 µM (inactive) | AC50 [10]: 16.5 µM (active)

N=C(N)N/N=C(\c1ccc(F)cc1)c1ccc(C(F)(F)F)cc1
AC50 [13]: 39.9 µM (active) | AC50 [11]: 3.32 µM (active)

CCCOc1ccc(OCCOCCN2CCc3ccccc3C2)cc1
IC50 [14]: > 3.32 µM (active) | IC50 [15]: > 29.9 µM (inactive) | EC50 [16]: > 29.9 µM (inactive) | EC50 [17]: 0.205 µM (active) | EC50 [18]: > 30 µM (not active) | EC50 [19]: 2.08 µM (active)

O=[N+]([O-])c1ccccc1-c1cc(-c2ccccc2O)n[nH]1
AC50 [20]: 26 µM (active) | AC50 [21]: 7.59 µM (active)
